Results taken from patent US20090053154A1, “MIXTURES OF ETHYLHEXYL P-METHOXYCINNAMATE AND ETHYLHEXYL SALICYLATE” (SYMRISE GmbH & Co. KG, priority 2005, published 2009).
Like-named read-outs stand apart in the source and are kept apart here.

Columns and labels:
[1] = emulsion containing 5 wt. % of EHMC; cited from earlier work
[2] = cited from earlier work
[3] = Specific extinction E 1%/1 cm of the UV filter; assay type: physicochemical; details: EHS versus EHMC
Source text: 2-Ethylhexyl p-methoxycinnamate (ethylhexyl p-methoxycinnamate, CAS no.: 5466-77-3; USAN: Octinoxate, Neo Heliopan® AV (Symrise trade mark); hereafter abbreviated to EHMC) is a liquid, oil-soluble UV-B filter with a specific extinction E 1%/1 cm at 308 nm of approx. 850 (cf. H&R Contact no. 51, January 1991, pages 3-8). 2-Ethylhexyl p-methoxycinnamate is also frequently abbreviated to octyl methoxycinnamate (OMC) in the literature.
2-Ethylhexyl salicylate (CAS no.: 118-60-5; USAN: Octisalate, Neo Heliopan® OS (Symrise trade mark); hereafter abbreviated to EHS) is likewise a liquid, oil-soluble UV-B filter with a specific extinction E 1%/1 cm at 305 nm of approx. 180 (cf. H&R Contact no. 51, January 1991, pages 3-8). The specific extinction of EHS is lower than that of EHMC by a factor of about 5.
The specific extinction of UV filters is of primary importance as an index for assessing the efficacy in respect of the achievable light protection factor (LPF, hereafter also SPF (sun protection factor)). […] The light protection factor of a (light protection) formulation is a measure of the UV-B protection it can achieve. The absolute SPF values also depend within certain limits on the cosmetic base formulation used.

Structure (SMILES)	SPF (in vitro measurement) [1]	specific extinction E 1%/1 cm ([2]; at 308 nm)	specific extinction E 1%/1 cm ([2]; at 305 nm)	specific extinction lower than that of EHMC by a factor [3]
CCCCC(CC)COC(=O)C=Cc1ccc(OC)cc1 (stereo not shown) [EHMC, 2-Ethylhexyl p-methoxycinnamate]	10.1	approx. 850	–	–
CCCCC(CC)COC(=O)c1ccccc1O (stereo not shown) [EHS, 2-Ethylhexyl salicylate]	–	–	approx. 180	about 5
